According to the Deep4Chem optical property database:

Experiment: solvent given as SMILES
Conditions: in C1CCCCC1

Row | SMILES | emission maximum [nm]
1 | CCCCCCCC1=C(C)C(=O)n2c1cc1[nH]c(C(=O)OC)c(C)c1c2=O | 448
2 | C#Cc1ccc2ccc3cccc4ccc1c2c34 | 383

Continued, values first:

Row | emission maximum [nm] | SMILES
3 | 487 | Cn1nc(-c2ccccc2)c2nc3cc(Cl)ccc3nc21
4 | 348 | CC(C)(C)c1ccc2c(c1)Cc1cc(C(C)(C)C)ccc1-2

Same assay, conditions: in C1CCOC1

Row | SMILES | emission maximum [nm]
5 | CN(C)c1ccc(C2=Nc3sc4cc(Cl)ccc4[n+]3[B-](F)(F)O2)cc1 | 477
6 | CCn1c2ccccc2c2cc(C#Cc3cc(C#Cc4ccc5c(c4)c4ccccc4n5CC)ncn3)ccc21 | 451
7 | CC(C)(C)c1ccc2c(c1)c1cc(C(C)(C)C)ccc1n2-c1nc2ccccc2nc1-n1c2ccc(C(C)(C)C)cc2c2cc(C(C)(C)C)ccc21 | 544.34

The remaining lines, values ahead:

Row | emission maximum [nm] | SMILES
8 | 519 | Cn1nc(-c2ccccc2)c2nc3cc(Cl)ccc3nc21
9 | 414 | O=P1(c2ccccc2)C(c2ccc(C(F)(F)F)cc2)=Cc2ccccc21 (stereo unspecified)
10 | 623 | CC1(C)CC(/C=C/c2ccc(N3CCOCCOCCOCCOCC3)cc2)=CC(=C(C#N)C#N)C1
11 | 455 | COc1ccc(-c2cnc3nn4ccccc4c3n2)cc1
12 | 463 | Clc1ccc(/C=C/c2ccc(-c3nc4c5cccnc5c5ncccc5c4[nH]3)cc2)cc1
13 | 469 | CCN1c2ccc(-c3cc(C(F)(F)F)[nH]n3)cc2Sc2cc(-c3cc(C(F)(F)F)[nH]n3)ccc21

Same assay, conditions: in C1COCCO1

Row | emission maximum [nm] | SMILES
14 | 428 | c1ccc(-c2nc(-c3ccc(-c4nc(-c5ccccc5)c(-c5ccccc5)o4)cc3)oc2-c2ccccc2)cc1

Same assay, conditions: in CC#N

Row | SMILES | emission maximum [nm]
15 | CN(C)c1ccc(C2=Nc3sc4cc(Cl)ccc4[n+]3[B-](F)(F)O2)cc1 | 491
16 | C#Cc1ccc2ccc3cccc4ccc1c2c34 | 384
17 | O=P1(c2ccccc2)C2=C(c3ccccc31)C(c1ccccc1)(c1ccccc1)c1cc(N(c3ccccc3)c3ccccc3)ccc12 (stereo unspecified) | 594

Continued, values first:

Row | emission maximum [nm] | SMILES
18 | 480 | O=c1oc2cc(S(=O)(=O)O)c3ccccc3c2nc1-c1ccccc1
19 | 540 | Cn1nc(-c2ccccc2)c2nc3cc(Cl)ccc3nc21
20 | 489 | COc1cc2cc(/C=C/c3ccc(/C=C/c4ccc(/C=C(\C#N)C(=O)O)cc4)cc3)c(=O)oc2cc1OC
21 | 418 | CCOC(=O)c1c2c3c(ccc(OC)c3c3cc4c(cc13)[Si](C)(C)O[Si]4(C)C)N(C)C2=O
22 | 640 | CC1(C)CC(/C=C/c2ccc(N3CCOCCOCCOCCOCC3)cc2)=CC(=C(C#N)C#N)C1
23 | 394 | CC(=O)Nc1cccc2c1C#Cc1c(cccc1C(=O)N(C)C)OCCCO2
24 | 471 | Clc1ccc(/C=C/c2ccc(-c3nc4c5cccnc5c5ncccc5c4[nH]3)cc2)cc1
25 | 469 | CCN1c2ccc(-c3cc(C(F)(F)F)[nH]n3)cc2Sc2cc(-c3cc(C(F)(F)F)[nH]n3)ccc21

Same assay, conditions: in CC(C)(C)O

Row | emission maximum [nm] | SMILES
26 | 478 | COCCOCCOc1cc(C=O)c(OCCOCCOC)cc1C=O
27 | 444 | COCCOCCOc1ccc(OCCOCCOC)c(C=O)c1

Same assay, conditions: in CC(C)=O

Row | SMILES | emission maximum [nm]
28 | CN(C)c1ccc(C2=Nc3sc4cc(Cl)ccc4[n+]3[B-](F)(F)O2)cc1 | 488

Same assay, conditions: in CC(C)CO

Row | emission maximum [nm] | SMILES
29 | 481 | COCCOCCOc1cc(C=O)c(OCCOCCOC)cc1C=O
30 | 453 | COCCOCCOc1ccc(OCCOCCOC)c(C=O)c1

Same assay, conditions: in CC(C)O

Row | emission maximum [nm] | SMILES
31 | 481 | COCCOCCOc1cc(C=O)c(OCCOCCOC)cc1C=O
32 | 454 | COCCOCCOc1ccc(OCCOCCOC)c(C=O)c1

Same assay, conditions: in CCCCCC

Row | SMILES | emission maximum [nm]
33 | CC(C)(C)c1ccc2c(c1)c1cc(C(C)(C)C)ccc1n2-c1nc2ccccc2nc1-n1c2ccc(C(C)(C)C)cc2c2cc(C(C)(C)C)ccc21 | 488.69

Same assay, conditions: in CCCCO

Row | emission maximum [nm] | SMILES
34 | 467 | COCCOCCOc1cc(C=O)c(OCCOCCOC)cc1C=O
35 | 456 | COCCOCCOc1ccc(OCCOCCOC)c(C=O)c1

Same assay, conditions: in CCCO

Row | emission maximum [nm] | SMILES
36 | 464 | COCCOCCOc1cc(C=O)c(OCCOCCOC)cc1C=O
37 | 460 | COCCOCCOc1ccc(OCCOCCOC)c(C=O)c1

Same assay, conditions: in CCO

Row | SMILES | emission maximum [nm]
38 | Cc1cc(C)c(-c2nnc(-c3ccc(-n4c5ccccc5c5ccccc54)c(C)c3)o2)c(C)c1 | 440
39 | COCCOCCOc1cc(C=O)c(OCCOCCOC)cc1C=O | 464
40 | COCCOCCOc1ccc(OCCOCCOC)c(C=O)c1 | 461

Next, values leading:

Row | emission maximum [nm] | SMILES
41 | 644 | CC[N+](CC)=c1ccc2cc3c(oc-2c1)-c1ccc(N(C)C)cc1CC3
42 | 643 | CC/[NH+]=c1\cc2oc3cc(NCCO)c4ccccc4c3nc-2cc1C
43 | 641 | CC1(C)CC(/C=C/c2ccc(N3CCOCCOCCOCCOCC3)cc2)=CC(=C(C#N)C#N)C1

Same assay, conditions: in CCOC(C)=O

Row | SMILES | emission maximum [nm]
44 | CCn1c2ccccc2c2cc(C#Cc3cc(C#Cc4ccc5c(c4)c4ccccc4n5CC)ncn3)ccc21 | 445
45 | CC1(C)CC(/C=C/c2ccc(N3CCOCCOCCOCCOCC3)cc2)=CC(=C(C#N)C#N)C1 | 618

Same assay, conditions: in CN(C)C=O

Row | emission maximum [nm] | SMILES
46 | 466 | COCCOCCOc1cc(C=O)c(OCCOCCOC)cc1C=O
47 | 424 | COCCOCCOc1ccc(OCCOCCOC)c(C=O)c1
48 | 464 | CCN1c2ccc(-c3cc(C(F)(F)F)[nH]n3)cc2Sc2cc(-c3cc(C(F)(F)F)[nH]n3)ccc21

Row | SMILES | emission maximum [nm]
49 | CCn1c2ccccc2c2cc(C#Cc3cc(C#Cc4ccc5c(c4)c4ccccc4n5CC)ncn3)ccc21 | 502

Same assay, conditions: in CNC=O

Row | emission maximum [nm] | SMILES
50 | 450 | COCCOCCOc1cc(C=O)c(OCCOCCOC)cc1C=O
51 | 458 | COCCOCCOc1ccc(OCCOCCOC)c(C=O)c1

Same assay, conditions: in CO

Row | emission maximum [nm] | SMILES
52 | 500 | CCCCCCCC1=C(C)C(=O)n2c1cc1[nH]c(C(=O)OC)c(C)c1c2=O
53 | 466 | COCCOCCOc1cc(C=O)c(OCCOCCOC)cc1C=O
54 | 468 | COCCOCCOc1ccc(OCCOCCOC)c(C=O)c1
55 | 473 | Clc1ccc(/C=C/c2ccc(-c3nc4c5cccnc5c5ncccc5c4[nH]3)cc2)cc1

Row | SMILES | emission maximum [nm]
56 | C#Cc1ccc2ccc3cccc4ccc1c2c34 | 383
57 | O=P1(c2ccccc2)C2=C(c3ccccc31)C(c1ccccc1)(c1ccccc1)c1cc(N(c3ccccc3)c3ccccc3)ccc12 (stereo unspecified) | 608

Same assay, conditions: in CS(C)=O

Row | SMILES | emission maximum [nm]
58 | CCCCCCCC1=C(C)C(=O)n2c1cc1[nH]c(C(=O)OC)c(C)c1c2=O | 482
59 | CCCCN(CCCC)c1ccc(/C=C/c2ccc3c(c2)CCc2cc(/C=C/c4ccc(N(CCCC)CCCC)cc4)ccc2-3)cc1 | 536.5

Same assay, conditions: in Cc1ccccc1

Row | SMILES | emission maximum [nm]
60 | Cc1cc(C)c(-c2nnc(-c3ccc(-n4c5ccccc5c5ccccc54)c(C)c3)o2)c(C)c1 | 377
61 | CN(C)c1ccc(C2=CC(c3ccccc3)=[N+]3C2=Nc2c(-c4ccc(N(C)C)cc4)cc(-c4ccccc4)n2[B-]3(F)F)cc1 | 822
62 | c1ccc(-c2nnc(-c3ccc(N4c5ccccc5Oc5ccccc54)cc3)o2)cc1 | 495
63 | CN(C)c1ccc(C2=Nc3sc4cc(Cl)ccc4[n+]3[B-](F)(F)O2)cc1 | 456
64 | CCCCN(CCCC)c1ccc(/C=C/c2ccc3c(c2)CCc2cc(/C=C/c4ccc(N(CCCC)CCCC)cc4)ccc2-3)cc1 | 456.4
65 | CCn1c2ccccc2c2cc(C#Cc3cc(C#Cc4ccc5c(c4)c4ccccc4n5CC)ncn3)ccc21 | 411
66 | CC(C)(C)c1ccc2c(c1)c1cc(C(C)(C)C)ccc1n2-c1nc2ccccc2nc1-n1c2ccc(C(C)(C)C)cc2c2cc(C(C)(C)C)ccc21 | 527
67 | CC(C)c1cc(C(C)C)c(B2c3ccccc3Oc3cc(N4c5ccccc5C5(c6ccccc6Oc6ccccc65)c5ccccc54)ccc32)c(C(C)C)c1 | 451
68 | COc1ccccc1C1=[N+]2C(=Nc3c(-c4ccccc4)cc(-c4ccccc4OC)n3[B-]2(F)F)C(c2ccccc2)=C1 | 688
69 | O=P1(c2ccccc2)C2=C(c3ccccc31)C(c1ccccc1)(c1ccccc1)c1cc(N(c3ccccc3)c3ccccc3)ccc12 (stereo unspecified) | 522

Same assay, conditions: in ClC(Cl)Cl

Row | emission maximum [nm] | SMILES
70 | 580 | CCCCN1C(=O)c2cc(Br)c3c4c(Br)c(Br)c5c6c(cc(Br)c(c7c(Br)c(Br)c(c2c37)C1=O)c64)C(=O)N(CCCC)C5=O
71 | 448 | CCCCCCCC1=C(C)C(=O)n2c1cc1[nH]c(C(=O)OC)c(C)c1c2=O
72 | 431 | O=C1CC(c2ccccc2)c2c(c3ccccc3c3nc4ccccc4nc23)O1 (stereo unspecified)
73 | 670 | Cc1cccc(C)c1-c1cc2c(C)c3c4ccc5nc6c(ccc7c8c(C)c9cc(-c%10c(C)cccc%10C)c(-c%10c(C)cccc%10C)cc9c(C)c8c76)nc5c4c3c(C)c2cc1-c1c(C)cccc1C

Same assay, conditions: in ClCCl

Row | SMILES | emission maximum [nm]
74 | c1ccc2c(-n3c(-c4ccc(-c5ccc(-c6nc7c8ccccc8c8ccccc8c7n6-c6cccc7ccccc67)c6ccccc56)c5ccccc45)nc4c5ccccc5c5ccccc5c43)cccc2c1 | 428
75 | CN(C)c1ccc(C2=Nc3sc4cc(Cl)ccc4[n+]3[B-](F)(F)O2)cc1 | 473
76 | CCn1c2ccccc2c2cc(C#Cc3cc(C#Cc4ccc5c(c4)c4ccccc4n5CC)ncn3)ccc21 | 484
77 | C#Cc1ccc2ccc3cccc4ccc1c2c34 | 384
78 | C(#Cc1nc(C#Cc2ccccc2)c(C#Cc2ccccc2)c(C#Cc2ccccc2)c1C#Cc1ccccc1)c1ccccc1 | 438
79 | COc1c2ccccc2c(OC)c2c(C#Cc3ccccc3)c3cc4ccccc4cc3c(C#Cc3ccccc3)c12 | 718

The next lines start with the values.

Row | emission maximum [nm] | SMILES
80 | 420 | CCOC(=O)c1c(-c2c(Cl)c3cc(C)ccc3oc2=O)nn(-c2cccc(Cl)c2)c1C(=O)OCC
81 | 642 | CC[N+](CC)=c1ccc2cc3c(oc-2c1)-c1ccc(N(C)C)cc1CC3
82 | 419 | CC(C)(C)NC(=O)c1cc2ccccc2c2ccc3c4ccccc4c4ccccc4c3c12
83 | 360 | c1ccc(-n2c3ccccc3c3cc(-c4cccc(-n5c6ccccc6c6ncccc65)c4)ccc32)cc1
84 | 589 | O=c1c2cccc3cccc(c32)c2nc3c4ccccc4c4ccccc4c3n12
85 | 625 | CC1(C)CC(/C=C/c2ccc(N3CCOCCOCCOCCOCC3)cc2)=CC(=C(C#N)C#N)C1
86 | 661 | CC(C)[Si](C#Cc1c2cc3ccccc3cc2c(C#Cc2ccccc2)c2cc3ccccc3cc12)(C(C)C)C(C)C
87 | 390 | CC(=O)Nc1cccc2c1C#Cc1c(cccc1C(=O)N(C)C)OCCCO2
88 | 636 | Cn1c2ccccc2c2cc(/C=C/C3=[O+][B-](F)(F)OC(/C=C/c4ccc5c(c4)c4ccccc4n5C)=C3c3ccccc3)ccc21
89 | 770 | CCN(CC)c1ccc2c(-c3ccccc3C(=O)O)c3c([o+]c2c1)/C(=C/c1ccc(N2CCCC2)s1)CCC3
90 | 467 | Clc1ccc(/C=C/c2ccc(-c3nc4c5cccnc5c5ncccc5c4[nH]3)cc2)cc1
91 | 467 | CCN1c2ccc(-c3cc(C(F)(F)F)[nH]n3)cc2Sc2cc(-c3cc(C(F)(F)F)[nH]n3)ccc21

Same assay, conditions: in NC=O

Row | emission maximum [nm] | SMILES
92 | 458 | COCCOCCOc1cc(C=O)c(OCCOCCOC)cc1C=O
93 | 463 | COCCOCCOc1ccc(OCCOCCOC)c(C=O)c1

Same assay, conditions: in O

Row | SMILES | emission maximum [nm]
94 | COCCOCCOc1cc(C=O)c(OCCOCCOC)cc1C=O | 496
95 | COCCOCCOc1ccc(OCCOCCOC)c(C=O)c1 | 485

The remaining lines, values ahead:

Row | emission maximum [nm] | SMILES
96 | 641 | CC[N+](CC)=c1ccc2cc3c(oc-2c1)-c1ccc(N(C)C)cc1CC3
97 | 651 | CC/[NH+]=c1\cc2oc3cc(NCCO)c4ccccc4c3nc-2cc1C

Same assay, conditions: in c1ccc(-n2c(-c3c(-n4c5ccccc5c5ccccc54)cccc3-n3c4ccccc4c4ccccc43)nc3ccccc32)cc1

Row | SMILES | emission maximum [nm]
98 | c1ccc(-c2nnc(-c3ccc(N4c5ccccc5Oc5ccccc54)cc3)o2)cc1 | 498

Same assay, conditions: in c1ccccc1

Row | emission maximum [nm] | SMILES
99 | 441 | CCCCCCCC1=C(C)C(=O)n2c1cc1[nH]c(C(=O)OC)c(C)c1c2=O
100 | 596 | CC1(C)CC(/C=C/c2ccc(N3CCOCCOCCOCCOCC3)cc2)=CC(=C(C#N)C#N)C1
101 | 463 | CCN1c2ccc(-c3cc(C(F)(F)F)[nH]n3)cc2Sc2cc(-c3cc(C(F)(F)F)[nH]n3)ccc21
